Assay results from patent US20200255828A1, “METHODS AND COMPOSITIONS FOR ALTERING FUNCTION AND STRUCTURE OF CHROMATIN LOOPS AND/OR DOMAINS” (THE BROAD INSTITUTE, INC., priority 2017, published 2020).

Test system: HCT-116 RAD21-mAC cells
Experiment: In situ Hi-C: contact domains and genome compartmentalization (Arrowhead corner score, eigenvector, sliding correlation score)
Format: cell-based, human
Text: Domains were annotated in both untreated and treated maps using Arrowhead (Durand et al., 2016b; Rao et al., 2014). Domains were called at 5 kb and 10 kb resolutions using default parameters and merged (retaining the 5 kb domain annotation for any pair of domains annotated in both the 5 kb and 10 kb annotations). Applicants annotated 9,845 domains in our untreated maps and 2,090 domains in our treated maps.
The most common method used for classifying Hi-C patterns is the principal component (PC) approach, which Applicants introduced in (Lieberman-Aiden et al., 2009). In this approach, each intrachromosomal contact matrix is converted to an observed/expected matrix, and the first principal component of this matrix is used to bifurcate the data into two clusters.
Applicants first calculated the first three principal components of the 25-kb resolution observed/expected matrix for each chromosome (constructed using Juicer) using scikit learn's RandomizedPCA function. Applicants chose the principal component most correlated with GC content and assigned sign such that the vector was positively correlated with the GC content vector. Applicants then calculated the correlation of the eigenvector for each chromosome between untreated and treated maps. The mean correlation was 0.968.
To identify transitions in compartment state at higher resolution, Applicants used a combination of techniques. First, Applicants calculated an edge score using an algorithm similar to Canny edge detection. For every 25 kb locus in the genome, Applicants looked at the corresponding column of the 25 kb log 2(observed/expected) matrix. For every pixel (i,j) in column j, Applicants calculated a gradient=[i,j:j+3]−[i,j−4,j−1]. Applicants then searched for stretches of at least 7 pixels in the column with a gradient x such that abs(x) was greater than 0.5. […] Finally, Applicants summed the number of pixels in a column belonging to an edge to calculate the edge score for a locus. Applicants then called local peaks in this track which could correspond to compartment state transitions since a compartment state transition at locus I will create an edge between locus i−1 and i.
As described in Section V.a.3 of Rao et al., 2014, this is akin to measures in finance that correlate returns of prices to identify similarities between stocks. To calculate this sliding derivative correlation score, Applicants calculated the gradient in the log 2(observed/expected) matrix over every boundary called in our edge score track. More specifically, for every locus i, and all boundaries j in boundary set J that were within 15 Mb of i, Applicants calculated the difference of mean ([j:j+5,i]) and mean ([j−6:j−1,i]). Applicants then calculated the Spearman correlation coefficient of these two vectors (one vector for the gradients at all boundaries j in J for the pixels upstream of i, and one vector for the pixels downstream of i). Applicants excluded the derivative signal at pixels not located at compartment state transitions as defined by the edge score to reduce noise, reasoning that pixels inside compartment intervals were unlikely to contribute meaningful rises/falls in contact probability. Similarly, Applicants only included pixels within 15 mb of i to reduce the noise arising from sparsity far off the diagonal.
Applicants then identified compartment boundaries by calling local peaks in the edge score track and local valleys in the sliding derivative correlation score track and merging the two peak call lists.
To assess the presence and strength of contact domains after auxin treatment, Applicants used the Arrowhead algorithm (Durand et al., 2016b; Rao et al., 2014). The Arrowhead algorithm calculates a corner score for every pixel, where higher corner score values represent a higher likelihood that a pixel is at the corner of a domain (see Section IV. a.3 of the Extended Experimental Procedures of Rao et al., 2014). […]

O=C(O)Cc1c[nH]c2ccccc12 [auxin, indole-3-acetic acid]
dip in sliding correlation in treated cells, H3K27me3 transitions spanned by loop domains (209 transitions, untreated 0.01 increase): 0.03
dip in sliding correlation in treated cells, H3K27Ac transitions spanned by loop domains (264 transitions, untreated 0.02): 0.19
dip in sliding correlation in treated cells, H3K27Ac transitions at loop domain boundaries (307 transitions, untreated 0.41): 0.49
decrease in sliding correlation score in treated cells, compartment boundaries contained within loop domains (349 boundaries, untreated 0.10): 0.31
decrease in sliding correlation score in treated cells, H3K27Ac transitions at loop anchors (381 transitions, untreated 0.10): 0.26
dip in sliding correlation in treated cells, H3K27me3 transitions at loop domain boundaries (384 transitions, untreated 0.29): 0.33
decrease in sliding correlation score in treated cells, compartment boundaries at loop domain anchors (389 boundaries, untreated 0.35): 0.53
decrease in sliding correlation score in treated cells, H3K27me3 transitions spanned by loops (391 transitions, untreated 0.27): 0.31
decrease in sliding correlation score in treated cells, H3K27Ac transitions spanned by loops (426 transitions, untreated 0.41): 0.50
decrease in sliding correlation score in treated cells, H3K27me3 transitions at loop anchors (469 transitions, untreated 0.03): 0.12
mean Pearson's r of Hi-C correlation map eigenvectors, untreated vs auxin treated (across all chromosomes): 0.968
